Source: PubChem BioAssay (NCI)
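These data come from cells grown in 96-well plates and exposed to compound for 48 hours at five concentrations. GI50 is the concentration that inhibits growth by half. TGI marks complete inhibition of growth.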

Columns and labels:
Assay in all cases: NCI-60 cell line screen, 48 h
SK-MEL-28 melanoma = system: SK-MEL-28 melanoma
HT29 colon = system: HT29 colon
HL-60(TB) leukemia = system: HL-60(TB) leukemia
MDA-MB-435 = system: MDA-MB-435
786-0 renal = system: 786-0 renal
CAKI-1 renal = system: CAKI-1 renal
HOP-92 NSCLC = system: HOP-92 NSCLC
A498 renal = system: A498 renal
NCI-H460 lung = system: NCI-H460 lung
SK-OV-3 ovarian = system: SK-OV-3 ovarian
COLO 205 colon = system: COLO 205 colon
TK-10 renal = system: TK-10 renal
NCI-H226 lung = system: NCI-H226 lung
NCI-H522 lung = system: NCI-H522 lung
MDA-MB-231 breast = system: MDA-MB-231 breast
SF-295 CNS = system: SF-295 CNS
ACHN renal = system: ACHN renal
OVCAR-4 ovarian = system: OVCAR-4 ovarian
A549 NSCLC = system: A549 NSCLC
SW-620 colon = system: SW-620 colon
PC-3 prostate = system: PC-3 prostate
SN12C renal = system: SN12C renal
SR leukemia = system: SR leukemia
MALME-3M melanoma = system: MALME-3M melanoma
T-47D breast = system: T-47D breast
NCI/ADR-RES ovarian = system: NCI/ADR-RES ovarian
SNB-19 CNS = system: SNB-19 CNS
SK-MEL-5 melanoma = system: SK-MEL-5 melanoma
U251 CNS = system: U251 CNS
UACC-257 melanoma = system: UACC-257 melanoma
RXF 393 renal = system: RXF 393 renal
MCF7 breast = system: MCF7 breast
CCRF-CEM leukemia = system: CCRF-CEM leukemia
OVCAR-3 ovarian = system: OVCAR-3 ovarian
EKVX NSCLC = system: EKVX NSCLC
KM12 colon = system: KM12 colon
HS 578T breast = system: HS 578T breast
RPMI-8226 leukemia = system: RPMI-8226 leukemia
HCT-116 colon = system: HCT-116 colon
OVCAR-8 ovarian = system: OVCAR-8 ovarian
SF-268 CNS = system: SF-268 CNS
OVCAR-5 ovarian = system: OVCAR-5 ovarian
UACC-62 melanoma = system: UACC-62 melanoma
MOLT-4 leukemia = system: MOLT-4 leukemia
UO-31 renal = system: UO-31 renal
DU-145 prostate = system: DU-145 prostate
NCI-H23 lung = system: NCI-H23 lung
K-562 leukemia = system: K-562 leukemia
SK-MEL-2 melanoma = system: SK-MEL-2 melanoma
SNB-75 CNS = system: SNB-75 CNS
HOP-62 NSCLC = system: HOP-62 NSCLC
HCC-2998 colon = system: HCC-2998 colon
LOX IMVI melanoma = system: LOX IMVI melanoma
SF-539 CNS = system: SF-539 CNS
IGROV1 ovarian = system: IGROV1 ovarian
HCT-15 colon = system: HCT-15 colon
M14 melanoma = system: M14 melanoma
BT-549 breast = system: BT-549 breast

Oc1ccc(OCCOc2ccc(O)cc2)cc1
GI50 (SK-MEL-28 melanoma): 88.9 µM
TGI (SK-MEL-28 melanoma): > 100 µM
GI50 (HT29 colon): 12.7 µM
TGI (HT29 colon): > 100 µM
GI50 (HL-60(TB) leukemia): 5.22 µM
TGI (HL-60(TB) leukemia): > 100 µM
GI50 (MDA-MB-435): 3.22 µM
TGI (MDA-MB-435): > 100 µM
GI50 (786-0 renal): 3.26 µM
TGI (786-0 renal): > 100 µM
GI50 (CAKI-1 renal): 0.987 µM
TGI (CAKI-1 renal): 20.6 µM
GI50 (HOP-92 NSCLC): 3.65 µM
TGI (HOP-92 NSCLC): > 100 µM
GI50 (A498 renal): 3.17 µM
TGI (A498 renal): > 100 µM
GI50 (NCI-H460 lung): 3.57 µM
TGI (NCI-H460 lung): > 100 µM
GI50 (SK-OV-3 ovarian): 99.2 µM
TGI (SK-OV-3 ovarian): > 100 µM
GI50 (COLO 205 colon): 21.3 µM
TGI (COLO 205 colon): 60.6 µM
GI50 (TK-10 renal): 6.65 µM
TGI (TK-10 renal): > 100 µM
GI50 (NCI-H226 lung): 4.98 µM
TGI (NCI-H226 lung): > 100 µM
GI50 (NCI-H522 lung): 1.72 µM
TGI (NCI-H522 lung): 55.9 µM
GI50 (MDA-MB-231 breast): 0.414 µM
TGI (MDA-MB-231 breast): > 100 µM
GI50 (SF-295 CNS): 2.36 µM
TGI (SF-295 CNS): 16.6 µM
GI50 (ACHN renal): 0.964 µM
TGI (ACHN renal): > 100 µM
GI50 (OVCAR-4 ovarian): > 100 µM
TGI (OVCAR-4 ovarian): > 100 µM
GI50 (A549 NSCLC): 3.5 µM
TGI (A549 NSCLC): > 100 µM
GI50 (SW-620 colon): 3.68 µM
TGI (SW-620 colon): > 100 µM
GI50 (PC-3 prostate): 2.75 µM
TGI (PC-3 prostate): > 100 µM
GI50 (SN12C renal): 5.72 µM
TGI (SN12C renal): > 100 µM
GI50 (SR leukemia): 7.41 µM
TGI (SR leukemia): > 100 µM
GI50 (MALME-3M melanoma): 3.69 µM
TGI (MALME-3M melanoma): > 100 µM
GI50 (T-47D breast): 4.15 µM
TGI (T-47D breast): > 100 µM
GI50 (NCI/ADR-RES ovarian): 3.41 µM
TGI (NCI/ADR-RES ovarian): > 100 µM
GI50 (SNB-19 CNS): 27.8 µM
TGI (SNB-19 CNS): > 100 µM
GI50 (SK-MEL-5 melanoma): 1.5 µM
TGI (SK-MEL-5 melanoma): 4.36 µM
GI50 (U251 CNS): 4.41 µM
TGI (U251 CNS): > 100 µM
GI50 (UACC-257 melanoma): 6.08 µM
TGI (UACC-257 melanoma): > 100 µM
GI50 (RXF 393 renal): 6.18 µM
TGI (RXF 393 renal): > 100 µM
GI50 (MCF7 breast): 4.77 µM
TGI (MCF7 breast): > 100 µM
GI50 (CCRF-CEM leukemia): 2.27 µM
TGI (CCRF-CEM leukemia): > 100 µM
GI50 (OVCAR-3 ovarian): 5.67 µM
TGI (OVCAR-3 ovarian): > 100 µM
GI50 (EKVX NSCLC): 11.2 µM
TGI (EKVX NSCLC): > 100 µM
GI50 (KM12 colon): 2.26 µM
TGI (KM12 colon): > 100 µM
GI50 (HS 578T breast): > 100 µM
TGI (HS 578T breast): > 100 µM
GI50 (RPMI-8226 leukemia): 9.24 µM
TGI (RPMI-8226 leukemia): > 100 µM
GI50 (HCT-116 colon): 6.24 µM
TGI (HCT-116 colon): > 100 µM
GI50 (OVCAR-8 ovarian): 3.37 µM
TGI (OVCAR-8 ovarian): > 100 µM
GI50 (SF-268 CNS): 3.94 µM
TGI (SF-268 CNS): > 100 µM
GI50 (OVCAR-5 ovarian): 10.4 µM
TGI (OVCAR-5 ovarian): > 100 µM
GI50 (UACC-62 melanoma): 2.45 µM
TGI (UACC-62 melanoma): 13.8 µM
GI50 (MOLT-4 leukemia): 8.82 µM
TGI (MOLT-4 leukemia): > 100 µM
GI50 (UO-31 renal): 1.47 µM
TGI (UO-31 renal): 8.83 µM
GI50 (DU-145 prostate): 2.8 µM
TGI (DU-145 prostate): > 100 µM
GI50 (NCI-H23 lung): 4.5 µM
TGI (NCI-H23 lung): > 100 µM
GI50 (K-562 leukemia): 3.08 µM
TGI (K-562 leukemia): > 100 µM
GI50 (SK-MEL-2 melanoma): 8.26 µM
TGI (SK-MEL-2 melanoma): 82.6 µM
GI50 (SNB-75 CNS): > 100 µM
TGI (SNB-75 CNS): > 100 µM
GI50 (HOP-62 NSCLC): 8.97 µM
TGI (HOP-62 NSCLC): > 100 µM
GI50 (HCC-2998 colon): 3.36 µM
TGI (HCC-2998 colon): 95.9 µM
GI50 (LOX IMVI melanoma): 1.24 µM
TGI (LOX IMVI melanoma): > 100 µM
GI50 (SF-539 CNS): 2.2 µM
TGI (SF-539 CNS): 28.2 µM
GI50 (IGROV1 ovarian): 5.94 µM
TGI (IGROV1 ovarian): > 100 µM
GI50 (HCT-15 colon): 8.55 µM
TGI (HCT-15 colon): > 100 µM
GI50 (M14 melanoma): 3.03 µM
TGI (M14 melanoma): 23.5 µM
GI50 (BT-549 breast): 8.08 µM
TGI (BT-549 breast): > 100 µM
